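A five-concentration, 48-hour dose response in 96-well plates underlies each endpoint, interpolated linearly between surrounding concentrations. Here, GI50 denotes the concentration required for 50% inhibition of growth.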 Calls of active or inactive are those of the source. Cut-off read from the data, not from the text of the source: active = GI50 up to about 1.1 µM and inactive = higher.
Key:
Assay in all cases: inhibition of tumour cell growth, NCI panel, 48 h
CAKI-1 = system: CAKI-1
CCRF-CEM = system: CCRF-CEM
HOP-92 = system: HOP-92
IGROV-1 = system: IGROV-1
MCF7 = system: MCF7
MDA-MB-435 = system: MDA-MB-435
NCI/ADR-RES = system: NCI/ADR-RES
OVCAR-3 = system: OVCAR-3
OVCAR-4 = system: OVCAR-4
RPMI-8226 = system: RPMI-8226
RXF 393 = system: RXF 393
SF-268 = system: SF-268
SF-295 = system: SF-295
SK-MEL-28 = system: SK-MEL-28
SK-MEL-2 = system: SK-MEL-2
SK-MEL-5 = system: SK-MEL-5
SR = system: SR
T47D = system: T47D
SN12C = system: SN12C
UACC-62 = system: UACC-62

Compound | GI50 (CAKI-1) | GI50 (CCRF-CEM) | GI50 (HOP-92) | GI50 (IGROV-1) | GI50 (MCF7) | GI50 (MDA-MB-435) | GI50 (NCI/ADR-RES) | GI50 (OVCAR-3) | GI50 (OVCAR-4) | GI50 (RPMI-8226) | GI50 (RXF 393) | GI50 (SF-268) | GI50 (SF-295) | GI50 (SK-MEL-28) | GI50 (SK-MEL-2) | GI50 (SK-MEL-5) | GI50 (SR) | GI50 (T47D) | GI50 (SN12C) | GI50 (UACC-62)
CC1=NN(c2cccc(Cl)c2)C(=N/c2nc3ccccc3s2)/C1=C\c1cccs1 | 52.7 µM (inactive) | 19.6 µM (inactive) | 32.4 µM (inactive) | 36 µM (inactive) | 33.9 µM (inactive) | 55.6 µM (inactive) | 20.9 µM (inactive) | 13 µM (inactive) | 35.6 µM (inactive) | 13.4 µM (inactive) | 51.3 µM (inactive) | 33.2 µM (inactive) | 25.3 µM (inactive) | 36.2 µM (inactive) | 25.9 µM (inactive) | 28.1 µM (inactive) | 19.5 µM (inactive) | 39.4 µM (inactive) | – | –
N=C(N)NS(=O)(=O)c1ccc(NC(=O)c2ccc3nc4ccccc4c(Nc4ccc(S(N)(=O)=O)cc4)c3c2)cc1 | > 100 µM (inactive) | > 100 µM (inactive) | > 100 µM (inactive) | > 100 µM (inactive) | > 100 µM (inactive) | > 100 µM (inactive) | > 100 µM (inactive) | > 100 µM (inactive) | > 100 µM (inactive) | > 100 µM (inactive) | > 100 µM (inactive) | > 100 µM (inactive) | > 100 µM (inactive) | > 100 µM (inactive) | > 100 µM (inactive) | > 100 µM (inactive) | > 100 µM (inactive) | > 100 µM (inactive) | > 100 µM (inactive) | > 100 µM (inactive)
COc1ccc(-n2c3c(c4cc(O)ccc42)C(=O)c2ccccc2C3=O)cc1 | 95.7 µM (inactive) | – | 16.9 µM (inactive) | 3.79 µM (inactive) | 10.7 µM (inactive) | 13.8 µM (inactive) | 4.61 µM (inactive) | 8.38 µM (inactive) | 17.4 µM (inactive) | 13.8 µM (inactive) | 2.84 µM (inactive) | 2.14 µM (inactive) | 2.86 µM (inactive) | 3.08 µM (inactive) | 5.75 µM (inactive) | 2.73 µM (inactive) | 10.4 µM (inactive) | 8.24 µM (inactive) | 2.3 µM (inactive) | 3.5 µM (inactive)
N=C(N)NC(CC(=O)O)c1ccccc1 (centres undefined) | > 100 µM (inactive) | – | > 100 µM (inactive) | > 100 µM (inactive) | > 100 µM (inactive) | > 100 µM (inactive) | > 100 µM (inactive) | > 100 µM (inactive) | > 100 µM (inactive) | > 100 µM (inactive) | > 100 µM (inactive) | > 100 µM (inactive) | > 100 µM (inactive) | > 100 µM (inactive) | > 100 µM (inactive) | > 100 µM (inactive) | > 100 µM (inactive) | > 100 µM (inactive) | > 100 µM (inactive) | > 100 µM (inactive)
O=c1oc2ccccc2cc1-c1nc2ccccc2c(=O)[nH]1 | > 100 µM (inactive) | > 100 µM (inactive) | > 100 µM (inactive) | > 100 µM (inactive) | 12 µM (inactive) | > 100 µM (inactive) | > 100 µM (inactive) | – | > 100 µM (inactive) | > 100 µM (inactive) | > 100 µM (inactive) | > 100 µM (inactive) | 54 µM (inactive) | > 100 µM (inactive) | > 100 µM (inactive) | > 100 µM (inactive) | > 100 µM (inactive) | > 100 µM (inactive) | > 100 µM (inactive) | > 100 µM (inactive)
COc1ncc(/C=C2\OC(=O)c3ccccc32)c(OC)n1 | 0.21 µM (active) | 39.1 µM (inactive) | 47.5 µM (inactive) | 4.48 µM (inactive) | 25.8 µM (inactive) | 77.8 µM (inactive) | 40.5 µM (inactive) | 24.9 µM (inactive) | – | 5.94 µM (inactive) | 7 µM (inactive) | 32.6 µM (inactive) | 4.19 µM (inactive) | 56.1 µM (inactive) | – | 9.95 µM (inactive) | 30.1 µM (inactive) | 23.6 µM (inactive) | > 100 µM (inactive) | –
Nc1ncc(C=O)c(NCC2(CO)CCC2)n1 | 2.25 µM (inactive) | 38.4 µM (inactive) | 14.5 µM (inactive) | 41.5 µM (inactive) | 23.9 µM (inactive) | 44.9 µM (inactive) | 65.9 µM (inactive) | 50.6 µM (inactive) | 48.9 µM (inactive) | 8.04 µM (inactive) | 28.4 µM (inactive) | 87.9 µM (inactive) | 36.8 µM (inactive) | – | 19.3 µM (inactive) | 19.9 µM (inactive) | 18 µM (inactive) | 14.8 µM (inactive) | > 100 µM (inactive) | 12.3 µM (inactive)
COc1ccc(Nc2nc3ccccc3n3cccc23)cc1OC | 25.2 µM (inactive) | 1.05 µM (active) | 34.4 µM (inactive) | 20.9 µM (inactive) | 16.1 µM (inactive) | 13.8 µM (inactive) | 17.4 µM (inactive) | 19.1 µM (inactive) | – | 11.8 µM (inactive) | 12.9 µM (inactive) | 21.9 µM (inactive) | 13.2 µM (inactive) | 15.1 µM (inactive) | 19.2 µM (inactive) | 11.9 µM (inactive) | 12.8 µM (inactive) | 4.06 µM (inactive) | – | 14.3 µM (inactive)
